These are literature values, as cited in patent US20070009535A1 (priority 2005, published 2007).

For the series the following is noted: several oncolytics tested in preclinical models.

As to `O[C@@H](COc1cccc2ncccc12)CN1CCN([C@@H]2c3ccccc3[C@@H]3[C@H](c4ccccc42)C3(F)F)CC1` [zosuquidar], the “pharmacokinetic interactions with oncolytics” value is listed as “minimal pharmacokinetic (PK) interactions”.
